Several values for one entry are separate records, joined by “and”; a condition that tells them apart may be missing. Equal values may be shown once.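 Protocol summary: plate cells (96-well), add compound at 5 concentrations, incubate 48 h, interpolate endpoints linearly. GI50 marks 50% less growth. At the TGI there is no net growth.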
Legend:
Experiment in all cases: inhibition of tumour cell growth, NCI panel, 48 h
HCT-15 colon = system: HCT-15 colon
NCI-H460 lung = system: NCI-H460 lung
MDA-MB-435 = system: MDA-MB-435
SW-620 colon = system: SW-620 colon
SK-OV-3 ovarian = system: SK-OV-3 ovarian
A498 renal = system: A498 renal
SK-MEL-28 melanoma = system: SK-MEL-28 melanoma
MDA-N = system: MDA-N
DU-145 prostate = system: DU-145 prostate
BT-549 breast = system: BT-549 breast

SMILES	TGI (HCT-15 colon) [µM]	TGI (NCI-H460 lung) [µM]	TGI (MDA-MB-435) [µM]	TGI (SW-620 colon) [µM]	TGI (SK-OV-3 ovarian)	TGI (A498 renal)	TGI (SK-MEL-28 melanoma) [µM]	TGI (MDA-N) [µM]	TGI (DU-145 prostate) [µM]	TGI (BT-549 breast) [µM]	GI50 (SK-OV-3 ovarian) [µM]	GI50 (A498 renal) [µM]	GI50 (SK-MEL-28 melanoma) [µM]	GI50 (BT-549 breast) [µM]
CC1=NC(=N)N=C(C)C1N=Nc1ccc2nc(C)[nH]c2c1 (stereo not given)	> 100	> 100	> 100	> 100	> 100 µM	> 100 µM	> 100	> 100	> 100	> 100				
COC(=O)c1c(O)ccc2c1c1c(n2Cc2ccc(OC)cc2)C(=O)c2ccccc2C1	> 100	> 100	> 100	> 100	> 100 µM	> 100 µM	> 100	> 100	> 100	> 100				
O=C(/C=C/c1ccccc1)c1cc(CN2CCOCC2)c(O)c(CN2CCOCC2)c1	29.7	19.4	32.3	28.9		28.2 µM	29.4	39	29.8	85.3				
COc1ccccc1N=Nc1c(O)ccc2ccccc12	> 100	38.1	> 100	> 100	29.5 µM and 38.3 µM	62.3 µM and 89.2 µM	> 100	> 100	> 100	> 100				
O=c1c2ccc(Cl)cc2oc2c(CSc3ccccc3)cccc12	> 100	90.4	> 68.3	> 31.6	> 100 µM	> 79.1 µM	> 100	> 100	> 100	> 78.7				
CN(Cc1cnc2nc(N)nc(N)c2n1)c1ccc(C(=O)NC(CCC(=O)O)C(=O)O)c2ccccc12 (stereo not given)	> 1000	> 1000	> 1000	> 1000	> 1000 µM	> 1000 µM		> 1000	> 1000	> 1000	55.3	0.0152	0.0616	> 1000
CC(C)OC(=O)C(NC(=O)C(CC(=O)OCc1ccccc1)NC(=O)OCc1ccccc1)NC(=O)C1C(C)(C)CCC1(C)C (stereo not given)	30.7	31.6	> 53.3	10.8	10.4 µM	4.37 µM	> 56.2	24.2	> 52.4	34.3				
CC(C)=CC1C(C(=O)OCc2cc3c(cc2Cl)OCO3)C1(C)C (stereo not given)	> 100	> 100	> 100	> 100		> 100 µM	> 100	81.5	> 100	> 100				
Cc1ccc(C(=O)Nc2ccc(CP(=O)(O)O)cc2CP(=O)(O)O)cc1N	> 100		> 100	> 100	> 100 µM	> 100 µM	> 100	> 100	> 100	> 100				
O=c1[nH]c2c(Nc3c4ccccc4nc4ccccc34)c([N+](=O)[O-])c(Nc3c4ccccc4nc4ccccc34)c([N+](=O)[O-])c2[nH]1	6.98	> 22.5	7.29	> 100	18.4 µM	3.35 µM	11.3	8.49	11.5	20.6				
